How the values were obtained:
[1] = test system: HCO3^− secretion by colonic mucosa; experiment: Acid-induced HCO3^− secretion (lumen pH recovery); parameters: species or system rat; conditions: 10 μM, serosa
Description: Stripped mucosal sheets were mounted into Ussing chambers (window area=0.3-0.5 cm^2, Physiologic Instruments, San Diego, Calif.). The mucosal side of tissue was bathed with an unbuffered HCO3^−-free Cl^− Ringer solution (see Table 2 for detailed composition) circulated by a gas lift with 100% O2 while the serosal side was bathed with buffered Cl^− Ringer solution (pH 7.4) that contained 25 mM HCO3^− and gassed with 5% CO2/95% O2. Each side contained 3-5 ml of solution and the temperature of the solution was adjusted to and maintained at 37° C. by heated water-jacketed reservoirs. […]
Two types of approaches were used in the measurement of colonic HCO3^− secretion, namely, measurement of lumen pH or pH stat titration of net alkalinization by colonic mucosa. […] The amount of the acid delivered per unit time per surface area was used to quantitate HCO3^− secretion by the mucosa. Measurements were recorded continuously and mean values for consecutive 5 or 10 min periods were averaged. The rate of HCO3^− secretion (JHCO3) is expressed as μEq/hr/cm^2. The short-circuit current (Isc) was measured in microamperes (μA) and converted into μEq/hr/cm^2. Tissue resistance (R, Ω cm^2) was calculated from Ohm's law. […]

ENaC = ENaC activity as amiloride-sensitive bumetanide-insensitive Isc, weanling distal colon; parameters: species or system rat; conditions: 10 μM; 2-3 week old rat distal colon
Description: FIG. 17. The inhibitory effect of […] on ENaC was examined electrophysiologically by measuring amiloride-sensitive short-circuit current responses in the presence or absence of […]. Weanling infant distal colonic mucosa, which expresses highest activity of ENaC, is employed and mounted in Ussing chamber. FIGS. 19A-19C. […] Here, the activity of ENaC is measured as amiloride-sensitive bumetanide-insensitive Isc. […] FIGS. 20A-20C. […] The activity of ENaC was measured as amiloride-sensitive bumetanide-insensitive Isc. […] Secretory Cl current is mediated by apical CFTR. This Cl secretory Isc is sensitive to bumetanide, applied to the basolateral side of the epithelium. There, bumetanide inhibits Cl entry from blood into the cell; thus, in the presence of bumetanide, the secretory Cl current is eliminated. Absorptive Na current is mediated by apically located epithelial Na channel (ENaC). This latter current is particularly high in this weanling age and is sensitive to amiloride, when it is applied luminally.

In the case of `COc1cccc([C@@H](C)NCCCc2ccccc2Cl)c1.Cl` [R568, 2-Chloro-N-[(1R)-1-(3-methoxyphenyl)ethyl]-benzenepropanamine hydrochloride], the “acid-induced HCO3^− secretion (pH recovery rate)” value [1] is reported as “transient but significant stimulation” and the “bumetanide-insensitive amiloride-inhibitable ENaC-mediated basal Isc” value (ENaC) is reported as “inhibited”.

From US20180153826A1, “MATERIALS AND METHODS FOR THE TREATMENT OF CYSTIC FIBROSIS” (UNIVERSITY OF FLORIDA RESEARCH FOUNDATION, INC., priority 2015, published 2018)
